Values quoted from earlier work, collected in patent publication EP1939174A1, “Inclusion complex of ezetimibe and a cyclodextrin and processes in the preparation thereof” (LEK Pharmaceuticals d.d., priority 2006, dated 2008).

solubility in alcohols and acetone (in alcohols and acetone): freely soluble | solubility in water (in water): practically insoluble
Compound: O=C1[C@H](CC[C@H](O)c2ccc(F)cc2)[C@@H](c2ccc(O)cc2)N1c1ccc(F)cc1 [Ezetimibe, 1-4(fluorophenyl)-3-(R)-[3-(4-fluorophenyl)-3-(S)-hydroxypropyl]-4-(S)-(4-hydroxyphenyl)-2-azetidinone]
